This is an account of results in patent publication US20080267942A1, “BENZAZEPIN-2(1H)-ONE DERIVATIVES” (Pfizer Limited, priority 2006, published 2008).

Where a name gives a salt, the structure may show the parent alone. Bounds are passed on as bounds.

The target of experiment [1] is T1, porcine beta-2 adrenoceptor (Sus scrofa, UniProt Q28997).
T1 construct: expressed in transfected cells; host or cells: CHO cells
Put plainly: cAMP assay in CHO cells transfected with the porcine beta-2 adrenoceptor (DiscoveRx Hit Hunter cAMP II). The format is cell-based. The conditions noted are these: CHO cells transfected with porcine beta-2 adrenoceptor, 30 minutes incubation with compound. The procedure:
(§1) CHO cells transfected with the bovine or porcine beta-2 adrenceptors were maintained in culture in DMEM/HAMS F12+10% FBS+2 mM glutamine+500 μg/ml geneticin (for the porcine receptor the medium was supplement with 1.5 mM HEPES) at 37° C. with a 5% CO2 atmosphere.
(§2) Cells were plated into 96 well viewplates in medium and incubated overnight at 37° C. with a 5% CO2 atmosphere. The cells were pre-incubated with 0.5 mM IBMX in PBS for 30 minutes prior to incubation with increasing concentrations of experimental compound (5×10^−12 to 10^−5M) for 30 minutes at 37° C. with a 5% CO2 atmosphere. At the end of the incubation time the compound was removed and the cells assayed for cAMP using the DiscoveRx Hit Hunter cAMP II™ assay kit.
(§3) Duplicate samples were run for each experimental compound and the data generated was analysed using EC50 analysis software in Graphpad Prism.

For experiment [2], the target named is T2, bovine beta-2 adrenoceptor (Bos taurus, UniProt Q28044).
T2 construct: expressed in transfected cells; host or cells: CHO cells
T2 sequence (Q28044 whole entry): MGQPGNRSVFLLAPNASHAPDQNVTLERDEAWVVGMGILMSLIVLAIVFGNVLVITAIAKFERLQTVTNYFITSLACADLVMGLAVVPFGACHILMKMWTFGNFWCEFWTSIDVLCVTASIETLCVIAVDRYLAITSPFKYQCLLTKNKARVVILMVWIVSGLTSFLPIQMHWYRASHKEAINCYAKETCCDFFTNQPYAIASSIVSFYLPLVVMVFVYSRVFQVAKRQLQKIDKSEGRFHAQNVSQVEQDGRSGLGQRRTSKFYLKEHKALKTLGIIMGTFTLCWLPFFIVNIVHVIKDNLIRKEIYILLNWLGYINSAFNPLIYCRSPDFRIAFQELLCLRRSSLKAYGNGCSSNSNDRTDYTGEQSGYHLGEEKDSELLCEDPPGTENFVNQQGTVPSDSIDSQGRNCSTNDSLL
Nature of the experiment: cAMP assay in CHO cells transfected with the bovine beta-2 adrenoceptor (DiscoveRx Hit Hunter cAMP II). The conditions noted are these: CHO cells transfected with bovine beta-2 adrenoceptor, 30 minutes incubation with compound. In kind it is cell-based. Here is the method: as §1, §2, §3

T1 sequence (Q28997 whole entry): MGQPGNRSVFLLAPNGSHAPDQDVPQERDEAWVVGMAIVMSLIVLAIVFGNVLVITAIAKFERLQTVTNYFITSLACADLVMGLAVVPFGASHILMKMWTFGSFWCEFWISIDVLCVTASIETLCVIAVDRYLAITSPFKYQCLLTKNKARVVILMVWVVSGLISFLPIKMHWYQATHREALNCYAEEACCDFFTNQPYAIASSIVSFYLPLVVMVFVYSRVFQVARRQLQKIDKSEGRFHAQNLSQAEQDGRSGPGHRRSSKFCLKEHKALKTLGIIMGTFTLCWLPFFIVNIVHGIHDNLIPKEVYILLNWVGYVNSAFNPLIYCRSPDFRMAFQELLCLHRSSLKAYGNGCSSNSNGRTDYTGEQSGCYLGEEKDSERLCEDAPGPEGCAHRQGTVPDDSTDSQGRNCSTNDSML

`CC(CCc1cnc(Cl)s1)N[C@@H]1CCn2c(=O)[nH]c3cccc(c32)[C@H]1O` (mixture of isomers) [Example 25, 6-{[3-(2-Chloro-1,3-thiazol-5-yl)-1-methylpropyl]amino}-7-hydroxy-4,5,6,7-tetrahydroimidazo[4,5,1-jk][1]benzazepin-2(1H)-one]: the values for the EC50 in experiment [1] and in experiment [2] were 4.2 nM and 2.9 nM, respectively.

As for `COc1ccc2[nH]cc(CCC(C)N[C@@H]3CCn4c(=O)[nH]c5cccc(c54)[C@H]3O)c2c1` (mixture of isomers) [Example 22, 7-hydroxy-6-{[3-(5-methoxy-1H-indol-3-yl)-1-methylpropyl]amino}-4,5,6,7-tetrahydroimidazo[4,5,1-jk][1]benzazepin-2(1H)-one], the EC50 – broadly, the concentration at which the effect is half-maximal – in experiment [1] was 53 nM; in experiment [2], 50 nM.

With `CC(CCc1nccs1)N[C@@H]1CCn2c(=O)[nH]c3cccc(c32)[C@H]1O` (mixture of isomers) [Example 24b, 7-Hydroxy-6-{[1-methyl-3-(1,3-thiazol-2-yl)propyl]amino}-4,5,6,7-tetrahydroimidazo[4,5,1-jk][1]benzazepin-2(1H)-one], the EC50 in experiment [1] came to 79 nM; in experiment [2] it was 92 nM.

Turning to `CC(CCc1cc(Br)no1)N[C@@H]1CCn2c(=O)[nH]c3cccc(c32)[C@H]1O` (single isomer, unassigned) [Example 52], the values for the half-maximal effective concentration (EC50) in experiment [1] and in experiment [2] were 1.3 nM and 1.2 nM, respectively.

With `CC(CCc1ccccn1)NC1CCn2c(=O)[nH]c3cccc(c32)C1O` (stereo not drawn) [Example 13, 7-Hydroxy-6-[(1-methyl-3-pyridin-2-ylpropyl)amino]-4,5,6,7-tetrahydroimidazo[4,5,1-jk][1]benzazepin-2(1H)-one], the concentration for a half-maximal effect (EC50) was 184 nM in experiment [1] and 356 nM in experiment [2].

Regarding `Cc1ncc(CCC(C)N[C@@H]2CCn3c(=O)[nH]c4cccc(c43)[C@H]2O)s1` (mixture of isomers) [Example 28a, 7-Hydroxy-6-{[1-methyl-3-(2-methyl-1,3-thiazol-5-yl)propyl]amino}-4,5,6,7-tetrahydroimidazo[4,5,1-jk][1]benzazepin-2(1H)-one], the results for the EC50 in experiment [1] and in experiment [2] were 104 nM and 129 nM, respectively.

On to `CC(CCc1nccs1)NC1CCn2c(=O)[nH]c3cccc(c32)C1O` (stereo not drawn) [Example 24a, 7-Hydroxy-6-{[1-methyl-3-(1,3-thiazol-2-yl)propyl]amino}-4,5,6,7-tetrahydroimidazo[4,5,1-jk][1]benzazepin-2(1H)-one], for which the 50% effective concentration (EC50) in experiment [1] was 464 nM; in experiment [2], 409 nM.

Consider `CC(CCc1cnn(C)c1)N[C@@H]1CCn2c(=O)[nH]c3cccc(c32)[C@H]1O` (single isomer, unassigned) [Example 56], for which the concentration for a half-maximal effect (EC50) was 2.7 nM in experiment [1] and 5.2 nM in experiment [2].

Consider `Cc1nn(C)c(C)c1CCC(C)N[C@@H]1CCn2c(=O)[nH]c3cccc(c32)[C@H]1O` (single isomer, unassigned) [Example 9a, 7-Hydroxy-6-{[1-methyl-3-(1,3,5-trimethyl-1H-pyrazol-4-yl)propyl]amino}-4,5,6,7-tetrahydroimidazo[4,5,1-jk][1]benzazepin-2(1H)-one], for which the concentration for a half-maximal effect (EC50) in experiment [1] came to 268 nM; in experiment [2] it was 402 nM.

In the case of `CC(CCc1n[nH]c2ccccc12)N[C@@H]1CCn2c(=O)[nH]c3cccc(c32)[C@H]1O` (single isomer, unassigned) [Example 58], the EC50 in experiment [1] is 33 nM; in experiment [2], 8.3 nM.

Take `CC(CCn1cccn1)NC1CCn2c(=O)[nH]c3cccc(c32)C1O` (stereo not drawn) [Example 15, 7-Hydroxy-6-{[1-methyl-3-(1H-pyrazol-1-yl)propyl]amino}-4,5,6,7-tetrahydroimidazo[4,5,1-jk][1]benzazepin-2(1H)-one]: the EC50 in experiment [1] is 98 nM; in experiment [2] it was 161 nM.

Take `Cc1nn(C)c(C)c1CCC(C)N[C@@H]1CCn2c(=O)[nH]c3cccc(c32)[C@H]1O` (single isomer, unassigned) [Example 48]: the 50% effective concentration (EC50) in experiment [1] is 3.1 nM; in experiment [2], 3.4 nM.

Regarding `CC(Cc1ccco1)NC1CCn2c(=O)[nH]c3cccc(c32)C1O` (stereo not drawn) [Example 11, 6-{[2-(2-Furyl)-1-methylethyl]amino}-7-hydroxy-4,5,6,7-tetrahydroimidazo[4,5,1-jk][1]benzazepin-2(1H)-one], the figures for the EC50 in experiment [1] and in experiment [2] were 64 nM and 108 nM, respectively.

Consider `CC(CCc1cccnc1N)N[C@@H]1CCn2c(=O)[nH]c3cccc(c32)[C@H]1O` (single isomer, unassigned) [Example 44], for which the EC50 stood at 1.8 nM in experiment [1] and 1.3 nM in experiment [2].

For the compound `CC(CCc1cnsc1)N[C@@H]1CCn2c(=O)[nH]c3cccc(c32)[C@H]1O` (single isomer, unassigned) [Example 47], the EC50 in experiment [1] came to 0.9 nM; in experiment [2] it was 0.6 nM.

Take `CC(CCc1cncs1)N[C@@H]1CCn2c(=O)[nH]c3cccc(c32)[C@H]1O` (single isomer, unassigned) [Example 6a, 7-Hydroxy-6-{[1-methyl-3-(1,3-thiazol-5-yl)propyl]amino}-4,5,6,7-tetrahydroimidazo[4,5,1-jk][1]benzazepin-2(1H)-one]: the EC50 in experiment [1] is > 10000 nM; in experiment [2], 22.9 nM.

Turning to `O=c1[nH]c2cccc3c2n1CC[C@@H](NCCc1c[nH]c2ccccc12)[C@@H]3O` (racemic) [Example 40a], the EC50 was found to be 20 nM in experiment [1] and 459 nM in experiment [2].

With `CC(CCc1c[nH]c2cnccc12)N[C@@H]1CCn2c(=O)[nH]c3cccc(c32)[C@H]1O` (single isomer, unassigned) [Example 32b, 7-Hydroxy-6-{[1-methyl-3-(1H-pyrrolo[2,3-c]pyridin-3-yl)propyl]amino}-4,5,6,7-tetrahydroimidazo[4,5,1-jk][1]benzazeiin-2(1H)-one], the results for the EC50 in experiment [1] and in experiment [2] were 1090 nM and 96 nM, respectively.

Regarding `CC(CCc1cccc2cc[nH]c12)N[C@@H]1CCn2c(=O)[nH]c3cccc(c32)[C@H]1O` (single isomer, unassigned) [Example 38b, 7-Hydroxy-6-{[3-(1H-indol-7-yl)-1-methylpropyl]amino}-4,5,6,7-tetrahydroimidazo[4,5,1-jk][1]benzazepin-2(1H)-one], the half-maximal effective concentration (EC50) in experiment [1] came to 0.9 nM; in experiment [2], 0.8 nM.

`CC(CCc1ccc2occc2c1)N[C@@H]1CCn2c(=O)[nH]c3cccc(c32)[C@H]1O` (mixture of isomers) [Example 43, 6-{[3-(1-Benzofuran-5-yl)-1-methylpropyl]amino}-7-hydroxy-4,5,6,7-tetrahydroimidazo[4,5,1-jk][1]benzazepin-2(1H)-one]: the EC50 amounted to 11 nM in experiment [1] and 16 nM in experiment [2].

For the compound `CC(CCc1c[nH]c2cnccc12)NC1CCn2c(=O)[nH]c3cccc(c32)C1O` (stereo not drawn) [Example 32a, 7-Hydroxy-6-{[1-methyl-3-(1H-pyrrolo[2,3-c]pyridin-3-yl)propyl]amino}-4,5,6,7-tetrahydroimidazo[4,5,1-jk][1]benzazepin-2(1H)-one], the EC50 in experiment [1] came to 92 nM; in experiment [2], 52 nM.

With `CC(/C=C/c1ccc2[nH]cnc2c1)N[C@@H]1CCn2c(=O)[nH]c3cccc(c32)[C@H]1O` (mixture of isomers) [Example 42, 6-{[3-(1H-Benzimidazol-5-yl)-1-methylprop-2-en-1-yl]amino}-7-hydroxy-4,5,6,7-tetrahydroimidazo[4,5,1-jk][1]benzazepin-2(1H)-one], the concentration for a half-maximal effect (EC50) stood at 22 nM in experiment [1] and 23 nM in experiment [2].

Turning to `Cc1ncsc1CCC(C)N[C@@H]1CCn2c(=O)[nH]c3cccc(c32)[C@H]1O` (single isomer, unassigned) [Example 34b, 7-Hydroxy-6-{[1-methyl-3-(4-methyl-1,3-thiazol-5-yl)propyl]amino}-4,5,6,7-tetrahydroimidazo[4,5,1-jk][1]benzazepin-2(1H)-one], the figures for the concentration for a half-maximal effect (EC50) in experiment [1] and in experiment [2] were 2.1 nM and 1.4 nM, respectively.

In the case of `CC(CCc1c[nH]c2ccc(F)cc12)N[C@@H]1CCn2c(=O)[nH]c3cccc(c32)[C@H]1O` (mixture of isomers) [Example 5b, Hydrochloride salt of 6-{[3-[5-Fluoro-1H-indol-3-yl]-1-methylpropyl]amino}-7-hydroxy-4,5,6,7-tetrahydroimidazo[4,5,1-jk][1]benzazepin-2(1)-one], the values for the EC50 in experiment [1] and in experiment [2] were 2.5 nM and 1.1 nM, respectively.

Turning to `CC(CCc1ncccc1O)N[C@@H]1CCn2c(=O)[nH]c3cccc(c32)[C@H]1O` (mixture of isomers) [Example 39, 7-Hydroxy-6-{[3-(3-hydroxypyridin-2-yl)-1-methylpropyl]amino}-4,5,6,7-tetrahydroimidazo[4,5,1-jk][1]benzazepin-2(1H)-one], the EC50 in experiment [1] came out at 159 nM; in experiment [2] it was 330 nM.

Turning to `CCOC(=O)c1[nH]c2ccccc2c1CC(C)NC1CCn2c(=O)[nH]c3cccc(c32)C1O` (single isomer, unassigned) [Example 16, Ethyl 3-(2-{[7-hydroxy-2-oxo-1,2,4,5,6,7-hexahydroimidazo[4,5,1-jk][1]benzazepin-6-yl]amino}propyl)-1H-indole-2-carboxylate], the EC50 in experiment [1] worked out at 10 nM; in experiment [2], 26 nM.

In the case of `CC(CCc1c[nH]c2ccc(Cl)cc12)N[C@@H]1CCn2c(=O)[nH]c3cccc(c32)[C@H]1O` (single isomer, unassigned) [Example 21a, 6-{[3-(5-Chloro-1H-indol-3-yl)-1-methylpropyl]amino}-7-hydroxy-4,5,6,7-tetrahydroimidazo[4,5,1-jk][1]benzazepin-2(1H)-one], the EC50 was > 10000 nM in experiment [1] and 1830 nM in experiment [2].
